The text below walks through data of patent US20060154910A1, “Use of steroids to treat ocular disorders” (priority 2003, published 2006).

One data set deals with rabbits. Kind of data set: Rabbit dexamethasone acetate induced IOP elevation, topical ocular anecortave acetate. The class given is in vivo. Conditions: for IOP change versus vehicle treated group: topical ocular three times a day for 2 weeks, rabbits on weekly subTenon's dexamethasone acetate 1 mg/kg, FIG. 2. How it is done:
Three groups of rabbits received weekly subTenon's injections of dexamnethasone acetate (1 mg/kg) for 4 weeks. After two weeks, the IOPs of all three groups measured approximately […]. The rabbits were then treated with vehicle, 0.1% anecortave acetate, a 1% anecortave acetate by topical ocular dosing three times a day for the remaining 2 weeks. The IOP continued to increase in the vehicle treated group.

The test system of data set [1] is patients with documented glucocorticoid induced ocular hypertension. Kind of data set: Topical anecortave acetate in patients with glucocorticoid induced ocular hypertension (IOP). The class given is in vivo, human. Conditions: patients (n=15), 1% eye drops topically three times per day for up to 12 weeks, glucocorticoid medication continued; reduced from 29 mm Hg; FIG. 1. How it is done: Patients (η=15) with documented glucocorticoid induced ocular hypertension were treated topically with 1% anecortave acetate eye drips three times per day for up to 12 weeks. The patients continued to receive their glucocorticoid medication.

As for `CC(=O)OCC(=O)[C@@]1(O)CC[C@H]2[C@@H]3CCC4=CC(=O)CC[C@]4(C)C3=CC[C@@]21C` [anecortave acetate, 4,9(11)-pregnadien-17α,21-diol-3,20dione-21-acetate], the “IOP change versus vehicle treated group” value in the data set on rabbits (0.1% anecortave acetate) and in the data set with rabbits (1% anecortave acetate) was “significantly lowered” throughout. Also, the “IOP after anecortave acetate treatment” value in data set [1] is listed as 19-22 mm Hg.
As to `CC(=O)OCC(=O)[C@@]1(O)[C@H](C)C[C@H]2[C@@H]3CCC4=CC(=O)C=C[C@]4(C)[C@@]3(F)[C@@H](O)C[C@@]21C` [dexamnethasone acetate, dexamethasone acetate, reference compound], in the data set on rabbits (rabbits, weekly subTenon's injections 1 mg/kg, after two weeks, all three groups), the “IOP after two weeks of glucocorticoid injections” value was “approximately 5 mm Hg”.
